Key:
[1] = system: RTS:mbIL15 in CAR T cells; experiment: Serine recombinase (SF370) integrated single vector CAR:HER1t+RTS:mbIL15, flow cytometry of mbIL15; type: cell-based
Experimental: Various DNA plasmids containing serine recombinase attachment sites and components of the gene switch system as depicted in FIG. 17 were transfected to peripheral blood mononuclear cells (PBMC) via nucleofection to redirect T cell specificity. Specifically, 3 single vectors were tested in the presence and absence of a serine recombinase, SF370:
(i) CAR:HER1t+constitutive mbIL15 (positive control)
(ii) CAR:HER1t+promoterless mbIL15 (negative control)
(iii) CAR:HER1t+RTS:mbIL15
The expression of the CAR and mbIL15 was evaluated weekly (at days 1, day 8, day 15 and day 22). Aliquots of cells were treated with either DMSO or veledimex 24-48 h prior to each flow to assess inducible mbIL15 expression. AaPC Clone 1 was added weekly at a 1:1 ratio with CAR+ cells.

[2] = system: gene switch controlled mbIL-15 expression in CD19-specific CAR T cells; experiment: Flow cytometry of mbIL-15 expression, veledimex ON-OFF-ON, SB gene switch CD19 CAR-T cells; type: cell-based, human
Experimental: Various DNA plasmids expressing a SB transposon system, i.e. SB11, membrane bound IL-15 (mbIL-15), and chimeric antigen receptor (CAR), were transfected to peripheral blood mononuclear cells (PBMC) via nucleofection to redirect T cell specificity (FIG. 1).
On day 0, 20 million PBMC were resuspended in 100 μL of Amaxa Human T cell Nucleofector solution (Cat. no. VPA-1002; Lonza, Basel, Switzerland) mixed with a total of 15 μg of transposons and 5 μg of transposase (SB11) and electroporated.
The following day (day 1) cells were counted, and CAR expression was measured by flow cytometry. CAR T Cells were stimulated with either γ-irradiated (100 Gy) or mitomycin C treated AaPCs at a 1:1 ratio. The AaPC cells used were K562-AaPC expressing CD19 antigen. Cultures were supplemented with IL-21 (30 ng/ml) only for the first round of stimulation and subsequently with recombinant human IL-2 (50 IU/ml) and IL-21 (30 ng/ml) (Pepro Tech) for remaining stimulations. T cell cultures were phenotyped at the end of each stimulation cycle, which typically lasted 7 days. The cultures were phenotyped for CAR expression by multi-parameter flow cytometry utilizing either Protein L or anti-idiotype antibody that recognizes CD19-specific CAR. Cultures were also closely monitored for the outgrowth of NK cells (defined as CD3negCD56+ population) and were removed from the CAR T cell cultures when the percentage exceeded 10% of total cell populations using magnetic beads for specific for CD56 (Stem Cell Technologies and/or Miltenyi Biotec), according to the manufacturer's instructions.
CD19-specific T cells were generated from mononuclear cells (MNC) derived from PB or UCB using SB transposition to introduce the CAR followed by addition of AaPC to numerically expand the T cells in a CAR-dependent manner.
For flow cytometry analysis to assess expression of various markers and gene(s) of interest, cells were gently resuspended and cell number, and viability were measured using Trypan blue exclusion method with the Countess instrument. Cell diameter size was also recorded. 5×10^5 cells for each for the samples were harvested at 330×g for 4 min at 10° C. for antibody staining. Harvested cells were incubated on ice for at least 15 min with 10% human AB serum in HBSS. Antibody cocktails containing fluorescently conjugated antibodies included one or more of antibodies specific to CD4 (Clone RPA-T4), CD8 (Clone SK1), CD3 (Clone UCHT1), CD56, CD19-specific CAR (anti-idiotype antibody), IL-15, and IL-15Rα, in HBSS+0.1% BSA+2 mM EDTA. The prepared antibody cocktails and associated fluorescence minus one/isotype control were added to stain the cell samples, and then the samples were incubated on ice for 30 min. The samples were then washed then with FACS buffer (HBSS+0.5% BSA+2 mM EDTA) and stained with Fixable Viability Dye (eBiosciences) for 30 min on ice. Cells were washed with FACS buffer and then fixed with a 4% paraformaldehyde solution (BD Cytofix; BD Biosciences). All samples were run on a LSR II flow cytometer, a Fortessa X-20 flow cytometer (BD Biosciences) or iQue Screener Plus (Intellicyt) and data was analyzed using FlowJo V10 (TreeStar, Ashland, Oreg.) or iQue Screener software.
For induction of expression using ligand (veledimex), AaPC stimulated CAR-T cells were harvested at 1×10^6 cells/ml. Either veledimex or DMSO (to keep DMSO concentration constant in both cultures) was added to the cultures. Veledimex was used at a concentration of 20 nM, 50 nM, 100 nM or as described. Cells were then cultured at 37° C. in presence of veledimex or DMSO for 2-3 days. After 2-3 days in culture, 5×10^5 cells for each for the samples were harvested at 330×g for 4 min at 10° C. for antibody staining. Harvested cells were incubated on ice for at least 15 min with 10% human AB serum in HBSS. […]

[3] = system: RTS-IL-12 in EGFRvIII-CAR-T cells; experiment: IL-12 induction in EGFRvIII-CAR/RTS-IL-12 T cells, ELISA of culture supernatant; type: cell-based
From the text: Sleeping Beauty transposons were designed as depicted in FIG. 22 to stably express EGFRvIII-specific CAR, a cell tag and RTS-IL-12. Transposon plasmids were electroporated in several donor T cells as previously described. EGFRvIII-CAR-T cells were selectively expanded ex vivo by successive rounds of stimulations every 7-10 days for up to 4 cycles with either γ-irradiated or mitomycin C treated AaPC that served as “feeder cells” at 1:1 ratio in media supplemented with IL-2 and IL-21. The AaPC cells used were K562-AaPC expressing EGFRvIII antigen. FIG. 26 depicts CAR expression in T cells from multiple donors as the CAR+ T cells are selectively expanded ex vivo.
To assay IL-12 induction in EGFRvIII-CAR-T cells, Pan T-cells at 24 h post nucleofection were treated with DMSO (control) or veledemix in the presence of AaPCs in media containing IL-21. After 48 hours post-nucleofection, culture supernatants were analyzed for IL-12 levels by ELISA.
Furthermore, the ability of RTS-IL-12/CAR-T cells to produce inducible IL-12 was assessed in presence or absence of antigen specific stimulation. EGFRvIII-CAR/RTS-IL-12 T cells were expanded ex vivo by three successive rounds of stimulation with EGFRvIII^+ AaPCs. […]

CCC[C@@H](N(NC(=O)c1cccc(OC)c1CC)C(=O)c1cc(C)cc(C)c1)C(C)(C)C [veledimex, N-[(1R)-1-(1,1-dimethylethyl)butyl]-N′-(2-ethyl-3-methoxybenzoyl)-3,5-dimethylbenzohydrazide]
mbIL15 expression after removal of veledimex ([1]; day 22): complete loss of mbIL15 expression | mbIL-15 expression on veledimex treatment ([1]; two weeks post-transfection, ~48 h treatment): induction of mbIL-15 expression | mbIL-15 expression versus veledimex concentration ([2]; 2 day incubation at 100, 25, 6.25, 1.56, 0.4 and 0 nM, gated FSC/SSC/LIVE/CD3+): dose response | expression of mbIL-15 post ligand addition ([2]; day 29 post nucleofection, gated on CD19-specific CAR positive populations): turned on | expression of mbIL-15 post ligand withdrawal ([2]; day 35 post nucleofection, gated on CD19-specific CAR positive populations): turned off | expression of mbIL-15 after re-introduction of ligand ([2]; day 40 post nucleofection, gated on CD19-specific CAR positive populations): maintained | expression of mbIL-15 after re-introduction of ligand ([2]; day 48 post nucleofection, gated on CD19-specific CAR positive populations): continuously maintained | expression of mbIL-15 after re-introduction of ligand ([2]; day 50 post nucleofection, gated on CD19-specific CAR positive populations): continuously maintained | veledimex induced IL-12 with versus without EGFRvIII^+ AaPCs ([3]; 100 nM veledimex, 48 hours, after three rounds of stimulation): greatly enhanced in presence of EGFRvIII antigen specific stimulation | IL-12 expression in culture supernatant ([3]; T cells co-expressing CAR and RTS-IL-12, treated 24 h post nucleofection with AaPCs and IL-21): induced IL-12 expression

Reference: patent publication US11692194B2, “Modulating expression of polypeptides via new gene switch expression systems” (Precigen, Inc., priority 2017, dated 2023)
